In patent US10905770B2, “Topical delivery of therapeutic agents using cell-penetrating peptides for the treatment of age-related macular degeneration and other eye diseases” (priority 2017, dated 2021):

Experiments:
[1] = tested on: membrane attack complex (MAC, C5b-9); assay: Immunohistochemistry of membrane attack complex, macaque study; format: in vivo, Macaca fascicularis; conditions: eyes injected with L-4F vs eyes injected with the scrambled peptide; fluorescence intensity
Protocol: (§1) The macaque study was conducted according to accepted guidelines. […] One eye per animal received 6 monthly injections of the same escalating dosages of L-4F or scrambled L-4F (total of 625 μg) in a 50 μL volume. The second eye per animal was not injected and was just observed.
(§2) Clinical laboratory tests including serology, hemograms and liver enzymes were conducted, and ophthalmic examinations were also performed, including fundus photographs, optical coherence tomography (OCT), intraocular pressure testing and blood sampling. After 7 months, all animals were sacrificed and eyes were immediately prepared for histology. […]
(§3) Assays for immunohistochemistry of the membrane attack complex (MAC, C5b-9) and complement factor D (CFD) were performed identically except for employment of monoclonal antibodies specific for each complement component. […] Fluorescence microscopy was conducted using an inverted fluorescence microscope (DMI 6000 from Leica Microsystems, Wetzlar, Germany) and a filter set for λex/λem=470 nm/525 nm. For the semiquantitative analysis of fluorescence intensity of C5b-9, 3-5 different regions in one slide were analyzed for 3 different slides from each eye (a total of 9-15 different regions from each eye). For the semiquantitative analysis of fluorescence intensity of complement factor D, 3 distinct regions for each eye were evaluated.

[2] = tested on: geriatric macaques with naturally occurring age-related maculopathy; assay: Macaque study: fellow non-injected eye, tolerability and blood hsCRP; format: in vivo
Protocol: as §1
Clinical laboratory tests including serology, hemograms and liver enzymes were conducted, and ophthalmic examinations were also performed, including fundus photographs, optical coherence tomography (OCT), intraocular pressure testing and blood sampling. After 7 months, all animals were sacrificed and eyes were immediately prepared for histology. Histochemistry was performed with oil red O for neutral lipids and filipin for esterified cholesterol. Immunohistochemistry was performed against complement factor D (CFD) and the membrane attack complex (MAC, C5b-9), both being markers of activation of the alternative complement pathway.
Circulating hsCRP, which is mainly produced in the liver, is a non-specific marker for systemic inflammation.

[3] = tested on: esterified cholesterol in the Bruch's membrane; assay: Filipin staining of esterified cholesterol in Bruch's membrane, macaque study; format: in vivo, Macaca fascicularis; conditions: eyes injected with L-4F vs placebo-injected eyes; 6 monthly intravitreal injections
Protocol: as §1, §2
For staining with filipin, specimens were washed once with deionized water for 5 min and then treated with 70% ethanol for 45 min. […] The specimens were then washed sequentially with PBS and deionized water, mounted with a mounting solution (Mowiol®, Carl Roth GmbH, Karlsruhe, Germany), covered with a glass cover slip, and examined using an inverted fluorescence microscope (DMI 6000 from Leica Microsystems, Wetzlar, Germany). Filipin fluorescence was observed using a UV filter set (λex/λem=350 nm/455 nm). […] Semiquantitative analysis of fluorescence intensity of filipin at three separate regions of the BrM was done on three different slides from the same eye (a total of 9 different regions from each eye).

[4] = tested on: complement factor D (CFD); assay: Immunohistochemistry of complement factor D, macaque study; format: in vivo, Macaca fascicularis; conditions: eyes injected with L-4F vs eyes injected with the scrambled peptide; fluorescence intensity
Protocol: as §1, §2, §3

[5] = tested on: neutral lipids in and on the Bruch's membrane; assay: Oil red O staining of neutral lipids in Bruch's membrane, macaque study; format: in vivo, Macaca fascicularis; conditions: eyes injected with L-4F vs eyes injected with placebo; 6 monthly intravitreal injections (total 625 μg); after 6 months
Protocol: as §1
Clinical laboratory tests including serology, hemograms and liver enzymes were conducted, and ophthalmic examinations were also performed, including fundus photographs, optical coherence tomography (OCT), intraocular pressure testing and blood sampling. After 7 months, all animals were sacrificed and eyes were immediately prepared for histology. Histochemistry was performed with oil red O for neutral lipids and filipin for esterified cholesterol. […]
For staining with oil red O (ORO), specimens were treated with a 0.3% oil red O (Sigma-Aldrich Biochemie GmbH, Hamburg, Germany) solution (in 99% isopropanol) for 30 min at room temperature (RT), followed by immersion in a 60% isopropanol solution for 12 min. […] Image analysis was performed by grading the intensity of ORO staining (red color) of the Bruch's membrane (BrM) with scores ranging from 0 to 4, according to a qualitative evaluation assessed in four different regions in two separate slices from each eye (a total of 8 different regions from each eye). […]

[6] = tested on: geriatric macaques with naturally occurring age-related maculopathy; assay: Bruch's membrane thickness by electron microscopy, macaque study; format: in vivo, Macaca fascicularis
Protocol: as §1
Lipid deposition in the Bruch's membrane contributes to thickening of the BrM. Bruch's membrane thickness was measured at the temporal outer macula of enucleated eyes examined by electron microscopy post-mortem.

Substance: Ac-DWFKAFYDKVAEKFKEAF-NH2 [L-4F]
- decreased level of MAC (C5b-9) in the BrM and the choriocapillaris [1]: about 58%
- blood level of high-sensitivity C-reactive protein (hsCRP) ([2]; after 6 monthly intravitreal injections vs day prior to first injection): did not increase
- tolerability (adverse events, side effects) ([2]; macaques intravitreally injected with L-4F): well tolerated
- reduction of esterified cholesterol in the BrM (filipin fluorescence) [3]: about 68%
- decreased level of complement factor D [4]: about 41%
- reduction of lipid deposits from the BrM (staining with oil red O) [5]: about 56%
- reduction of BrM thickness ([6]; eyes injected with L-4F vs eyes injected with placebo): about 24%
- BrM thickness ([6]; eyes injected with L-4F, temporal outer macula, electron microscopy post-mortem, ±SE): 1.31 μm
